Experimental data published in PubChem BioAssay (NCI).
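48-hour exposure; five concentrations; linearly interpolated endpoints. Definition used: TGI = concentration required for complete inhibition of growth.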

Assays:
Assay in all cases: NCI tumour cell line growth inhibition, 48 h
UO-31 renal = tested on: UO-31 renal
NCI/ADR-RES ovarian = tested on: NCI/ADR-RES ovarian
MDA-N = tested on: MDA-N
RXF 393 renal = tested on: RXF 393 renal
SN12C renal = tested on: SN12C renal
HOP-92 NSCLC = tested on: HOP-92 NSCLC
SK-MEL-5 melanoma = tested on: SK-MEL-5 melanoma
UACC-257 melanoma = tested on: UACC-257 melanoma
786-0 renal = tested on: 786-0 renal
SF-295 CNS = tested on: SF-295 CNS
MDA-MB-231 breast = tested on: MDA-MB-231 breast
SF-539 CNS = tested on: SF-539 CNS
NCI-H522 lung = tested on: NCI-H522 lung
BT-549 breast = tested on: BT-549 breast
COLO 205 colon = tested on: COLO 205 colon
OVCAR-3 ovarian = tested on: OVCAR-3 ovarian
A498 renal = tested on: A498 renal
SK-MEL-2 melanoma = tested on: SK-MEL-2 melanoma
MOLT-4 leukemia = tested on: MOLT-4 leukemia
IGROV1 ovarian = tested on: IGROV1 ovarian

Row | Compound | TGI (UO-31 renal) | TGI (NCI/ADR-RES ovarian) | TGI (MDA-N) | TGI (RXF 393 renal) | TGI (SN12C renal) | TGI (HOP-92 NSCLC) | TGI (SK-MEL-5 melanoma) | TGI (UACC-257 melanoma) | TGI (786-0 renal) | TGI (SF-295 CNS) | TGI (MDA-MB-231 breast) | TGI (SF-539 CNS) | TGI (NCI-H522 lung) | TGI (BT-549 breast) | TGI (COLO 205 colon) | TGI (OVCAR-3 ovarian) | TGI (A498 renal) | TGI (SK-MEL-2 melanoma) | TGI (MOLT-4 leukemia) | TGI (IGROV1 ovarian)
1 | CC1=C(C(=O)OCCO[N+](=O)[O-])C(c2cccc([N+](=O)[O-])c2)C(C(=O)OC(C)C)=C(C)N1 (centres undefined) | 28.1 µM | 34.3 µM | 28.1 µM | 31.5 µM | 36.4 µM | 25.5 µM | 26.1 µM | 25.2 µM | 35.7 µM | 56.6 µM | 26.1 µM | 30.5 µM | 34.9 µM | 27.1 µM | 24.4 µM | 23.6 µM | 46.8 µM | 28 µM | > 100 µM | 33.9 µM
2 | CC1=NN(c2nc(N)nc(/C(C#N)=C/c3ccccc3O)n2)C(C)(C)C1 | 36.5 µM | 47 µM | 30.7 µM | 39.5 µM | 71.9 µM | 36.7 µM | 28.8 µM | 38.5 µM | 29.1 µM | 30.7 µM | 40.7 µM | 30.6 µM | 36 µM | 67.7 µM | 31.5 µM | 27.8 µM | 62.9 µM | 39.6 µM | > 100 µM | 45.5 µM
3 | CC(=O)Oc1c(C)c2c(c3ncccc13)OC(C)C2 (centres undefined) | 28.4 µM | 35.9 µM | 32.3 µM | 30.9 µM | 30.1 µM | 28.2 µM | 27.5 µM | 28.6 µM | 26.7 µM | 28.5 µM | 26.2 µM | 28.7 µM | 15.4 µM | 35.6 µM | 35.7 µM | > 100 µM | 58.3 µM | 40.1 µM | 25.9 µM | 20.1 µM
4 | Cn1c2ccc([N+](=O)[O-])cc2c(=O)n1Cc1ccccc1F | > 100 µM | 76.3 µM | > 100 µM | > 100 µM | > 100 µM | 91.6 µM | > 100 µM | > 100 µM | > 100 µM | > 100 µM | > 100 µM | 79.6 µM | 71.5 µM | > 100 µM | > 100 µM | > 100 µM | > 100 µM | > 100 µM | > 100 µM | > 100 µM
5 | COc1ccccc1CCN1CCN(CCCc2ccccc2)CC1 | > 100 µM | > 100 µM | > 100 µM | > 100 µM | > 100 µM | 23.2 µM | 45.7 µM | > 100 µM | > 100 µM | > 100 µM | > 100 µM | > 100 µM | > 100 µM | > 100 µM | 76 µM | > 100 µM | > 100 µM | > 100 µM | > 100 µM | > 100 µM
6 | C=CCC1(O)CC(n2cc(C)c(=O)[nH]c2=O)OC1CO[Si](C)(C)C(C)(C)C (centres undefined) | > 100 µM | > 100 µM | > 100 µM | > 100 µM | > 100 µM | > 100 µM | > 100 µM | > 100 µM | > 100 µM | > 100 µM | > 100 µM | > 100 µM | – | > 100 µM | 42.7 µM | > 100 µM | > 100 µM | > 100 µM | > 100 µM | > 100 µM
7 | CCN(CC)c1ccc2cc(C(N)=O)c(=N)oc2c1 | – | > 100 µM | > 100 µM | > 100 µM | > 100 µM | > 100 µM | > 100 µM | > 100 µM | > 100 µM | – | > 100 µM | > 100 µM | – | > 100 µM | > 100 µM | > 100 µM | > 100 µM | 54.1 µM | > 100 µM | 80.7 µM
8 | Nn1c(CCCCCCCCc2nnc(COc3ccc(Cl)cc3Cl)n2N)nnc1COc1ccc(Cl)cc1Cl | > 100 µM | > 100 µM | > 100 µM | > 100 µM | > 100 µM | > 100 µM | > 100 µM | > 100 µM | > 100 µM | – | > 100 µM | – | 59.7 µM | > 100 µM | 70 µM | – | > 100 µM | > 100 µM | > 100 µM | 66 µM
9 | CS(=O)(=O)OCCCCOS(=O)(=O)CF | > 100 µM | > 100 µM | > 100 µM | > 100 µM | > 100 µM | > 92.4 µM | > 100 µM | > 100 µM | > 100 µM | > 100 µM | > 100 µM | > 100 µM | > 100 µM | > 100 µM | > 100 µM | > 100 µM | > 100 µM | > 100 µM | > 100 µM | > 100 µM
10 | COc1cccc2c1C(=O)C1=C(C2=O)C(O)CC(C)(C)O1 (centres undefined) | > 100 µM | 75.7 µM | 36 µM | > 100 µM | > 100 µM | > 100 µM | 28.3 µM | 50 µM | > 100 µM | > 100 µM | 87.7 µM | > 100 µM | 62.8 µM | > 100 µM | 54 µM | 40.5 µM | > 100 µM | > 100 µM | 82.6 µM | > 100 µM
11 | C=Cc1nc2c(Cl)ncnc2n1Cc1ccccc1 | 6.02 µM | 23.1 µM | 13.6 µM | 7.84 µM | 17.5 µM | 4.66 µM | 8.69 µM | 8.6 µM | 4.49 µM | 32.2 µM | 19.1 µM | 8.77 µM | 3.83 µM | 10.9 µM | 3.08 µM | 7.95 µM | 22.4 µM | 26.3 µM | > 28.4 µM | 10.9 µM
12 | O=C1C=Cc2c(Br)sc(Br)c21 | 39.2 µM | > 100 µM | > 100 µM | 46 µM | > 100 µM | 60 µM | > 100 µM | > 100 µM | > 100 µM | > 100 µM | 52.4 µM | > 100 µM | 68.2 µM | > 100 µM | > 100 µM | 32.3 µM | > 100 µM | 70.3 µM | 36.8 µM | 43.5 µM
13 | O=c1ccn([C@@H]2C[C@H]2CO)c(=O)[nH]1 | > 100 µM | > 100 µM | > 100 µM | > 100 µM | > 100 µM | > 100 µM | > 100 µM | > 100 µM | > 100 µM | – | > 100 µM | > 100 µM | > 100 µM | > 100 µM | > 100 µM | – | > 100 µM | > 100 µM | > 100 µM | > 100 µM
14 | O=c1c2cccnc2n2n1Cc1ccccc1C2 | > 100 µM | > 100 µM | > 100 µM | > 100 µM | > 100 µM | > 100 µM | > 100 µM | > 100 µM | > 100 µM | > 100 µM | > 100 µM | > 100 µM | > 100 µM | > 100 µM | – | > 100 µM | > 100 µM | – | > 100 µM | > 100 µM
15 | O=C(OCc1ccccc1)N(CCCCN(CCCNC(=O)C(F)(F)F)C(=O)OCc1ccccc1)CCCNC(=O)C(F)(F)F | > 100 µM | > 100 µM | > 100 µM | > 100 µM | > 100 µM | > 100 µM | > 100 µM | > 100 µM | > 100 µM | > 100 µM | > 100 µM | > 100 µM | > 100 µM | > 100 µM | > 100 µM | > 100 µM | > 100 µM | > 100 µM | > 100 µM | > 100 µM
16 | N#CC(C#N)=C1C(=Cc2ccc(OCCCCCCCCCCSSCCCCCCCCCCOc3ccc(C=C4C(=C(C#N)C#N)c5ccccc5C4=C(C#N)C#N)cc3)cc2)C(=C(C#N)C#N)c2ccccc21 | 40.2 µM | 38.8 µM | 88.3 µM | 67.2 µM | – | 34.9 µM | 52.3 µM | > 100 µM | 41.7 µM | 45.7 µM | > 100 µM | 47 µM | 34.7 µM | 38.9 µM | – | 89 µM | 48.5 µM | 64 µM | 80 µM | > 100 µM
17 | Nc1ncc(Br)c(NCC2(CO)CCC2)n1 | > 100 µM | > 100 µM | > 100 µM | > 100 µM | > 100 µM | > 100 µM | > 100 µM | > 100 µM | > 100 µM | > 100 µM | > 100 µM | > 100 µM | > 100 µM | > 100 µM | > 100 µM | > 100 µM | > 100 µM | > 100 µM | > 100 µM | > 100 µM
18 | Cc1ccc2c(c1)[nH]c(=S)n2C=C(C(N)=O)C(N)=O | > 100 µM | > 100 µM | > 100 µM | > 100 µM | > 100 µM | > 100 µM | > 100 µM | > 100 µM | > 100 µM | > 100 µM | > 100 µM | > 100 µM | – | > 100 µM | > 100 µM | > 100 µM | > 100 µM | > 100 µM | – | > 100 µM
19 | CSC(=N/C=C/c1ccccc1)SC | > 100 µM | > 100 µM | > 100 µM | > 100 µM | > 100 µM | > 100 µM | – | > 100 µM | > 100 µM | > 100 µM | > 100 µM | > 100 µM | > 100 µM | > 100 µM | > 100 µM | > 100 µM | > 100 µM | > 100 µM | > 100 µM | > 100 µM
